Results reported in patent publication US20260234159A1, “SMALL MOLECULE TREATMENT OF FATTY LIVER DISEASE AND HCC” (SCANDIEDGE THERAPEUTICS AB, priority 2023, published 2026).
Read-outs that look alike come from different tables or passages of the source.

Key:
HepG2 cells = assay: Triglyceride (TAG) measurement assay, one week steatosis model; format: cell-based, human; settings: Homo sapiens
Experimental: (§1) HepG2 wild type cells were purchased from genome engineering company Synthego. Cells were maintained with Roswell Park Memorial Institute growth media, RPMI, 1640 (R2405, Sigma-Aldrich) and supplemented with 10% fetal bovine serum (FBS, F7524, Sigma-Aldrich), 1% penicillin-streptomycin (P/S, P4333, Sigma-Aldrich). Steatosis induction media was prepared as high glucose Dulbecco's Modified Eagle Media (DMEM, D0819, Sigma-Aldrich) with 10% FBS, 1% P/S media supplemented with 10 μg/ml insulin (I9278, Sigma-Aldrich), and 10 μM T0901317 (T2320, Sigma-Aldrich). HepG2 cells were seeded 6×10^4 cells per well for 96-well plate and 1×10^6 cells per well for 6-well plate. HepG2 cells were incubated with steatosis induce media (SM) for one week by 3 day+2 day+2 day with total three times media exchange.
HepG2 cells were seeded at 6×10^4 cells per well into 96 well plate and induced steatosis for one week with 10 μM of target drugs. After steatosis induction, cells were washed with 200 μl of phosphate buffered saline (PBS) and triglyceride contents was measured by Triglyceride Assay Kit—Quantification (ab65336, Abcam) following manufacturer's instruction. Optical density (O.D) values were detected with microplate reader at 570 nm (Hidex Sense Beta Plus).
(§2) HepG2 cells were seeded at 60,000 cells per well in 96 well plate. Using steatosis induce media, the cells were treated with 10 μM of target drugs for one week. The media was changed 3 times at day 0, day 3 and day 5. TAG assay was performed using MAK266-1KT SDS Triglyceride Quantification Colorimetric kit and cell viability analysis was performed using MTT assay.

[1] = MTT cell viability after one week steatosis (ranking of target molecules); format: cell-based, human; settings: human, HepG2 cells (wild type); HepG2, 10 μM, one week steatosis induce media, MTT; Control 100.00
Experimental: as §1, §2

JNK1 = target: T1, JNK1 (Homo sapiens, UniProt P45983); assay: JNK enzyme activity assay, purified JNK1; format: biochemical; settings: 10 μM, Phospho-c Jun (Ser 73) by western blot
T1 construct: purchased Thermo Fisher PV3319
T1 sequence (P45983 whole entry): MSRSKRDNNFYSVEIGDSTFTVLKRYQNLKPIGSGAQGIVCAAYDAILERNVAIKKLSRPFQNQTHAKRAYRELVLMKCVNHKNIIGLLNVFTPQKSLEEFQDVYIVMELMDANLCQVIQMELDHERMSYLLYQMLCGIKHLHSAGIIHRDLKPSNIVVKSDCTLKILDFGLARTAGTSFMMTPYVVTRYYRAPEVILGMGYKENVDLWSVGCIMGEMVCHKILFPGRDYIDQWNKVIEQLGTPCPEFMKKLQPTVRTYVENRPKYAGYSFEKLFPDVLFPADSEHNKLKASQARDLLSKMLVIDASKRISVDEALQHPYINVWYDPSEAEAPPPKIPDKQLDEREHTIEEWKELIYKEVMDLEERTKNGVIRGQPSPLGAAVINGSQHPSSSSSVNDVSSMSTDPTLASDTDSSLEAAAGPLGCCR
Experimental: (§3) JNK activity was measured with JNK Activity Assay Kit (ab273417, Abcam). JNK activity assay was performed with purified JNK, JNK1 (PV3319, Thermo Fisher), JNK2 (PV3620, Thermo Fisher) JNK3(PV4563, Thermo Fisher). 0.3 μg of each JNK purified protein were incubated with c-Jun Protein/ATP in Kinase Assay Buffer for 1 hr followed by manufacturer's instruction with 10 μM small molecules. Catalysed substrate Phospho-c Jun (Ser 73) was detected by western blot analysis. Western blot analysis performed with JNK Activity Assay kit supplied anti-Phospho-cJun (Ser 73) Specific Antibody at 1:10,000 for overnight and Goat Anti-Rabbit HRP (ab205718, abeam) at 1:10,000 for 1 hr incubation as primary and secondary antibody.

JNK2 = target: T2, JNK2 (Homo sapiens, UniProt P45984); assay: JNK enzyme activity assay, purified JNK2; format: biochemical; settings: 10 μM, Phospho-c Jun (Ser 73) by western blot
T2 construct: purchased Thermo Fisher PV3620
T2 sequence (P45984 whole entry): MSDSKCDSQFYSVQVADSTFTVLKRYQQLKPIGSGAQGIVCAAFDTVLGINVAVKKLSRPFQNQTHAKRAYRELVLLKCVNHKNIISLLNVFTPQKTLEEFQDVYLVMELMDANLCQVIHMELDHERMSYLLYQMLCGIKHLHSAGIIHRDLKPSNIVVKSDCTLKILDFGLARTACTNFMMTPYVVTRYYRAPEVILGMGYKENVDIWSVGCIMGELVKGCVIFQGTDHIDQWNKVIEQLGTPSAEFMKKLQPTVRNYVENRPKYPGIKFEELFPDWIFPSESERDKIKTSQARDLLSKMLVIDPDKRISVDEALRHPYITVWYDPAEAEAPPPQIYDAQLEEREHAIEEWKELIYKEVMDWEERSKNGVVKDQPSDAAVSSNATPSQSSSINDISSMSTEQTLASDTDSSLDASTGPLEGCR
Experimental: as §3

JNK3 = target: T3, JNK3 (Homo sapiens, UniProt P53779); assay: JNK enzyme activity assay, purified JNK3; format: biochemical; settings: 10 μM; greatest inhibition was obtained for JNK3
T3 construct: purchased Thermo Fisher PV4563
T3 sequence (P53779 whole entry): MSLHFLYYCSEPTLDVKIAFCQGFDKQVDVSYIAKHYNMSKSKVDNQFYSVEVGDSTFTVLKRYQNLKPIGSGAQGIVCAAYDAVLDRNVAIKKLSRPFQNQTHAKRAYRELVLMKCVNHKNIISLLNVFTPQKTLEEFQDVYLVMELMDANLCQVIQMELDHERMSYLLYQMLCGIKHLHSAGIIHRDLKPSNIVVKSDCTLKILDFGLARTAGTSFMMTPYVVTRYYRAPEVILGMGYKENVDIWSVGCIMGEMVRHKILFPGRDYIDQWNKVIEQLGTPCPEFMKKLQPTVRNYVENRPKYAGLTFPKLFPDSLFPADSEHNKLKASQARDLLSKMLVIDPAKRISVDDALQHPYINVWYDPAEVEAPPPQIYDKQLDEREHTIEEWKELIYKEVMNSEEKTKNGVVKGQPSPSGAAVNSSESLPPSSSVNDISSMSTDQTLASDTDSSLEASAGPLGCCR
Experimental: as §3

JNK protein = assay: Cellular thermal shift assay (CETSA), protein-ligand binding; parameters: species or system human; settings: 10 μM, 60° C.; versus JNK-IN-5A
Experimental: HepG2 cells were trypsinized and calculated at 1×10^6 cells into 1.5 ml micro centrifuge tube with 100 μl cell culture media. Cells were incubated in a CO2 incubator at 37° C. for 1 hr with 10 μM of each target drug. Drug treated cells were heated at 60° C. for 3 min using a heat plate. Heated cells were lysed with Native lysis buffer (ab156035, Abcam). Thermal shifted JNK proteins were detected with western blot analysis using JNK1+2+3 antibody (Ab179461, Abcam) and band intensity was analysed with ImageJ program.

[2] = 168 h, HepG2, 10 μM, one week steatosis induce media, Control 100.00, read-out: TAG (%)
[3] = HepG2, 168 h, ratio between TAG content and cell viability, Control 100.0, read-out: TAG/cell viability

| JNK1 activity (JNK1) | JNK2 activity (JNK2) | JNK3 activity (JNK3) | binding to the JNK protein (JNK protein) | Compound | activity at 10 µM (HepG2 cells; [2]) [%] | activity at 10 µM (HepG2 cells; [3]) [%] | viability at 1 week, 10 µM [1] [%] |
| --- | --- | --- | --- | --- | --- | --- | --- |
| inhibited | inhibited | inhibited | better binding | CN(C)C(=O)N1CCc2c(sc(NC(=O)c3cccc4ccccc34)c2C#N)C1 [PKL-A117] | 12.8 | 31.4 | 40.6 |
| inhibited | inhibited | inhibited | better binding | N#Cc1c(NC(=O)c2cccc3ccccc23)sc2c1CCN(C(=O)Nc1ccccc1F)C2 [PKL-A119] | 12.5 | 31.2 | 40.1 |
| inhibited | inhibited | inhibited | better binding | CC(C)(C)OC(=O)N1CCc2c(sc(NC(=O)c3cccc4ccccc34)c2C#N)C1 [PKL-A131] | 13.1 | 29.3 | 44.8 |
| inhibited | inhibited | inhibited | better binding | COc1ccc(C(=O)N2CCc3c(sc(NC(=O)c4cccc5ccccc45)c3C#N)C2)cc1OC [PKL-A132] | 12.8 | 31.9 | 40.3 |
